BigSolDB 2.1

C[C@]12CCC3=C4CCC(=O)C=C4CC[C@H]3[C@@H]1CC[C@@]2(O)CC#N
solubility (mole fraction)
Settings	273.15 K	278.15 K	283.15 K	288.15 K	293.15 K	298.15 K	303.15 K	308.15 K	313.15 K	318.15 K
in DMF	0.0262	0.0275	0.0293	0.0303	0.0318	0.0333	0.0343	0.0354	0.0364	0.0374
in MTBE	0.000258	0.000281	0.000302	0.000327	0.000355	0.000384	0.000416	0.00045	0.000489	0.000531
in THF	0.0106	0.0115	0.0125	0.0138	0.0148	0.0158	0.0172	0.0182	0.0192	0.0201
in acetone	0.00464	0.00495	0.00536	0.00576	0.00616	0.00667	0.00717	0.00777	0.00828	0.00899
in acetonitrile	0.00125	0.00149	0.00172	0.00202	0.00232	0.00273	0.00313	0.00363	0.00414	0.00475
in ethanol	0.000981	0.00122	0.00152	0.00189	0.00233	0.00287	0.00353	0.00434	0.00524	0.00637
in ethyl acetate	0.00145	0.00167	0.00192	0.00215	0.00242	0.00273	0.00304	0.00338	0.00374	0.00414
in isopropanol	0.000738	0.000899	0.0011	0.00131	0.00158	0.00192	0.00227	0.00273	0.00323	0.00378
in methanol	0.00182	0.00209	0.00235	0.00269	0.00303	0.00344	0.00384	0.00434	0.00493	0.00553
in n-propanol	0.00136	0.00161	0.00187	0.00219	0.00256	0.00298	0.00345	0.00399	0.00462	0.00532
in water	5.99e-06	6.47e-06	6.99e-06	7.58e-06	8.19e-06	8.88e-06	9.62e-06	1.04e-05	1.13e-05	1.23e-05
